Data reported in ChEMBL document CHEMBL1137945, “Design, synthesis, and activity of HDAC inhibitors with a N-formyl hydroxylamine head group” (Bioorg Med Chem Lett, 2004).

Tests used:
[1] = biological target: T1, Protein deacetylase HDAC6 (Homo sapiens, UniProt Q9UBN7)
T1 sequence (Q9UBN7 whole entry): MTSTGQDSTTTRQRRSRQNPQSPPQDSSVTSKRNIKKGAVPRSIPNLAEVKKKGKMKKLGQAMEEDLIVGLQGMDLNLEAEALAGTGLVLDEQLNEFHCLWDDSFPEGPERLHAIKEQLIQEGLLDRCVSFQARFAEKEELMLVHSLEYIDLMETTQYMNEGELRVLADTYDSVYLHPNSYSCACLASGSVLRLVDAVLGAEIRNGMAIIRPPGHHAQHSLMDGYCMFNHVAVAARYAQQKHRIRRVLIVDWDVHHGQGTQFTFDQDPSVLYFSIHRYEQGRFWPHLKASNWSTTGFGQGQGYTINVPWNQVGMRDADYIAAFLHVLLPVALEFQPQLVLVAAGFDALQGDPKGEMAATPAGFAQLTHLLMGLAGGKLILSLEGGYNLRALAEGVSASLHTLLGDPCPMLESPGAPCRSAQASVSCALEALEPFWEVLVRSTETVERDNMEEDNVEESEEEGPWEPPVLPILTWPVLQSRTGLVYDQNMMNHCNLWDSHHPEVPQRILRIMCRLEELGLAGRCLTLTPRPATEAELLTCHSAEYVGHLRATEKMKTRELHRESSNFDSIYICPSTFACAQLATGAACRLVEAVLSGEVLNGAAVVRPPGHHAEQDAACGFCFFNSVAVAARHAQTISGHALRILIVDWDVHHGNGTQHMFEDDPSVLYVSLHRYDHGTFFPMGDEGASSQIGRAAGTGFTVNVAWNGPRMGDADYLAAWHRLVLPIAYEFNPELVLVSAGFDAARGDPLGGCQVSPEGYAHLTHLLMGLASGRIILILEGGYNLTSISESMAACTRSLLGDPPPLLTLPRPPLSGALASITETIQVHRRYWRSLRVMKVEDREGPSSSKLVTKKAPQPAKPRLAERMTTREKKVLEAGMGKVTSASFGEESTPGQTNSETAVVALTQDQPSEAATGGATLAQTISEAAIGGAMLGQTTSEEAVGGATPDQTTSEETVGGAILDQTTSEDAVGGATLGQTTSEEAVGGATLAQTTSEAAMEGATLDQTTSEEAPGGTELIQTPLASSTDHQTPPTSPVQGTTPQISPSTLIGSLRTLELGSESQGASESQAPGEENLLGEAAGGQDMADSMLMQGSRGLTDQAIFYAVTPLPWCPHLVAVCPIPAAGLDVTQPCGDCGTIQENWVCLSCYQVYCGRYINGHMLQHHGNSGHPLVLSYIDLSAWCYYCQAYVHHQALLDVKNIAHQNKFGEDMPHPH
Description: Inhibition of Histone deacetylase 6 (HDAC6) of HeLa nuclear extracts

Histone deacetylase 2 = Histone deacetylase 2 (Homo sapiens, UniProt Q92769); test: Inhibition of Histone deacetylase 2 (HDAC2) activity of HeLa nuclear extracts
Chain of Histone deacetylase 2 (Q92769 whole entry): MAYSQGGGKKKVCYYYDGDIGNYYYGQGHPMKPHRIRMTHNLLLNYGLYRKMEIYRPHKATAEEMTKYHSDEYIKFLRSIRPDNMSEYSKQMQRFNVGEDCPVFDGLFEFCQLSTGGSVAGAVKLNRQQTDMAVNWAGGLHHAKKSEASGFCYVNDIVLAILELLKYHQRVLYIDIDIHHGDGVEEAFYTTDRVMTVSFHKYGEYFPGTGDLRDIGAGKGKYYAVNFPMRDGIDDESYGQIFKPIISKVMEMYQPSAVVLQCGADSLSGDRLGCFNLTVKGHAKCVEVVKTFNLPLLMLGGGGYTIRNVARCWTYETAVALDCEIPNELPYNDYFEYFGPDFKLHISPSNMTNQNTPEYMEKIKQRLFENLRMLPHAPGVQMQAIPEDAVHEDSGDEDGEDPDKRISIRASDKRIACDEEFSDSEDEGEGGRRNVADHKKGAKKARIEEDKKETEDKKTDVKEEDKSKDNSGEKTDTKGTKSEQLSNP

Histone deacetylase 8 = biological target: T2, Histone deacetylase 8 (Homo sapiens, UniProt Q9BY41)
T2 sequence (Q9BY41 whole entry): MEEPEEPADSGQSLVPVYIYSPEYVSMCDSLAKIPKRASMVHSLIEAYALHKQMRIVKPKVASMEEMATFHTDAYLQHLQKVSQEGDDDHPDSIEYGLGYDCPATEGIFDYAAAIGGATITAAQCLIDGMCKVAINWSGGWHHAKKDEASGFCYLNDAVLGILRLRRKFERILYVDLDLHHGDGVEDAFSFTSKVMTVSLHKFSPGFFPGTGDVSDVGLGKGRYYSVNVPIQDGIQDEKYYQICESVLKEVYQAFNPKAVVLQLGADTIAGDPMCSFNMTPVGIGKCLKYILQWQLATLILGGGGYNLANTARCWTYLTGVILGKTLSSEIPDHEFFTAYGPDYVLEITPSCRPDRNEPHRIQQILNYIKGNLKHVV
Description: Inhibition of Histone deacetylase 8 (HDAC8) of HeLa nuclear extracts

Histone deacetylase = test: Inhibition of Histone deacetylase (HDAC)of HeLa nuclear extracts; format: protein assay, Homo sapiens
[2] = Activity in histone hyperacetylation assay in cells; format: functional
[3] = test system: bone marrow cells (Homo sapiens); test: cells
Homo sapiens = species: Homo sapiens; test: Compound was tested for anti-proliferative activity in human hepatocytes; format: functional, organism-based; settings: Hepatocyte
Histone deacetylase 1 = Histone deacetylase 1 (Homo sapiens, UniProt Q13547)
Chain of Histone deacetylase 1 (Q13547 whole entry): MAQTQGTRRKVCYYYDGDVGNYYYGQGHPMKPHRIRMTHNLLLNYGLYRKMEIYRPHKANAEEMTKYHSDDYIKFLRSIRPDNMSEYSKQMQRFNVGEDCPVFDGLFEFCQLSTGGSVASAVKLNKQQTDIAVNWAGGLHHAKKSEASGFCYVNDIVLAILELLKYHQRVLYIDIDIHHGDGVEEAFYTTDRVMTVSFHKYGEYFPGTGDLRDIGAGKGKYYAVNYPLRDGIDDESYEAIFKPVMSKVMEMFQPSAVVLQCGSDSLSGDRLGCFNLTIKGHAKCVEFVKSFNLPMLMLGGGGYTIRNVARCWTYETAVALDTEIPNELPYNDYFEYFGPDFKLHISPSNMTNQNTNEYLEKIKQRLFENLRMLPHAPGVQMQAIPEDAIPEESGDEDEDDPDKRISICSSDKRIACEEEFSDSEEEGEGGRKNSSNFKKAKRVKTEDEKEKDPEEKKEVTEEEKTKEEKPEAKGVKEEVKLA
Description: Inhibition of Histone deacetylase 1 (HDAC1) of HeLa nuclear extracts

U-937 = test: Compound was tested for anti-proliferative activity in U-937 human leukemia cell line; format: functional, cell-based
Jurkat = test: Compound was tested for anti-proliferative activity in Jurkat human leukemia cell line; format: functional, cell-based

IC50 [1]	IC50 (Histone deacetylase 2)	IC50 (Histone deacetylase 8)	IC50 (Histone deacetylase)	IC50 (Histone deacetylase 1)	SMILES	EC50 [2]	EC50 [3]	EC50 (Homo sapiens)	EC50 (U-937)	EC50 (Jurkat)
2.8 µM	19 µM	6.8 µM	–	–	O=CN(O)CCCCCC(=O)Nc1ccccc1	–	–	–	–	–
–	–	–	–	–	O=C(CCCCCCC(=O)Nc1ccccc1)NO [VORINOSTAT]	–	–	–	33 µM	2.3 µM
4.3 µM	26 µM	22 µM	> 100 µM	30 µM	O=CN(O)CCCCCNC(=O)c1ccccc1	–	–	–	–	–
5.5 µM	7.8 µM	2.8 µM	–	–	O=CN(O)CCCCCCCC(=O)Nc1ccccc1	–	–	–	–	–
> 100 µM	> 100 µM	> 100 µM	> 100 µM	–	CC(=O)N(O)CCCCCC(=O)Nc1ccccc1	–	–	–	–	–
0.91 µM	0.89 µM	0.78 µM	4 µM	0.81 µM	O=CN(O)CCCCCCCC(=O)Nc1ccc2ccccc2c1	–	–	–	–	–
> 100 µM	> 100 µM	> 100 µM	–	–	CC(=O)N(O)CCCCCCCC(=O)Nc1ccccc1	–	–	–	–	–
> 100 µM	> 100 µM	> 100 µM	–	–	COC(=O)N(O)CCCCCCC(=O)Nc1ccccc1	–	–	–	–	–
–	11 µM	4 µM	–	–	O=CN(O)CCCCCCC(=O)Nc1ccccc1	–	–	–	–	–
0.6 µM	1.4 µM	7 µM	4.4 µM	1.3 µM	O=CN(O)CCCCCNC(=O)c1ccc2ccccc2c1	–	–	–	–	–
3.1 µM	5.9 µM	0.65 µM	50 µM	5.7 µM	O=CN(O)CCCCCCCC(=O)Nc1cccc2ccccc12	–	–	–	–	–
30 µM	41 µM	9.7 µM	> 100 µM	49 µM	O=CN(O)CCCCCNC(=O)CCc1ccccc1	–	–	–	–	–

SMILES	IC50 [1]	IC50 (Histone deacetylase 2)	IC50 (Histone deacetylase 8)	IC50 (Histone deacetylase)	IC50 (Histone deacetylase 1)	EC50 [2]	EC50 [3]	EC50 (Homo sapiens)	EC50 (U-937)	EC50 (Jurkat)
O=CN(O)CCCCCC(C(=O)Nc1cnc2ccccc2c1)C(=O)Nc1cnc2ccccc2c1	0.78 µM	0.2 µM	0.69 µM	0.97 µM	0.16 µM	5.1 µM	78 µM	41 µM	40 µM	11 µM
O=CN(O)CCCCCC(C(=O)Nc1ccc2ncccc2c1)C(=O)Nc1ccc2ncccc2c1	0.62 µM	0.27 µM	0.8 µM	0.75 µM	0.18 µM	10 µM	130 µM	> 500 µM	100 µM	31 µM
